In patent publication US20230073755A1, “USE OF IGF1 IN COMBINATION WITH IGFEC24 IN PREPARATION OF MEDICINE FOR PROMOTING TISSUE REPAIR AND REGENERATION” (Chongqing University, priority 2020, published 2023):

Tested on: sciatic nerve
Experiment: Sciatic nerve injury repair in rat sciatic nerve injury (clamp) model
Format: in vivo, SD rats
From the text: The 8-week-old female SD rats were randomly divided into sham-operated and operated groups, with 3 rats in each group. SD rats were anesthetized by intraperitoneal injection of 10% chloral hydrate, and after successful anesthesia, the rats were fixed, and their right hind limbs were exposed by shaving with a shaver, and disinfected twice with 75% alcohol. A 3-4 cm incision was made with a scalpel at the posterior lateral femur of the right hind limb to expose the biceps femoris muscle, and the muscle was bluntly separated with surgical scissors to expose the thick sciatic nerve. The sciatic nerve was clamped vertically with a microhemostatic forceps, buckled to the third buckle, maintained for 10 s, repeated 3 times at 5 s/interval, resulting in an injury area approximately 2 mm wide, and the sciatic nerve was put back in place and sutured layer by layer. Penicillin (40,000 units/100g) was injected intraperitoneally for three consecutive days to prevent wound infection. […]
A dark box runway of 70 cm in length, 10 cm in width and 10 cm in height was made. […] The footprint length (PL), toe width (TS) and middle toe width (IT) were then measured and brought into the Bain formula for calculation.Bain formula: SFI=109.5 (ETS−NTS)/NTS−38.3 (EPL−NPL)/NPL+13.3(EIT−NIT)/NIT−8.8. […]

IGF1-24: 97 amino acids: amino-terminal 70 identical to IGF1, carboxyl-terminal 24 identical to IGFEc24 peptide, joined by three Gly linkers (SEQ ID NO: 4)
expression of GAP-43 in the sciatic nerve (immunofluorescence) (after 14 days of IGF1-24 100 μg/kg intraperitoneally, significantly different from control and Injury groups, FIG. 15): remained at a high level
sciatic nerve index (SFI) (treated group after IGF1-24 treatment, footprint analysis, Bain formula, FIG. 17): close to that of the uninjured group
